Values of other authors, collected in patent US9459262B2, “Systems and methods for determining the percentage of glycated hemoglobin” (Relia Diagnostic Systems, Inc., priority 2009, dated 2016).

Details: not given

Row | Compound | Ionization constant (pKa)
1 | COc1cccc(B(O)O)c1 [3-Methoxyphenylboronic acid] | 8.7
2 | OB(O)c1ccc(F)cc1 [4-Fluorophenylboronic acid] | 9.1
3 | COC(=O)c1cc(B(O)O)cc([N+](=O)[O-])c1 [3-Methoxycarbonyl-5-nitrophenylboronic acid] | 6.9
4 | OB(O)c1cc(Cl)cc(Cl)c1 [3,5-Dichlorophenylboronic acid] | 7.4
5 | O=C(O)c1ccc(B(O)O)cc1 [4-Carboxyphenylboronic acid] | 8.4
6 | COc1ccc(B(O)O)cc1 [4-Methoxyphenylboronic acid] | 9.3
7 | OB(O)c1cc(C(F)(F)F)cc(C(F)(F)F)c1 [3,5-Bis(trifluoromethyl)phenylboronic acid] | 7.2
8 | O=[N+]([O-])c1ccc(B(O)O)cc1 [4-Nitrophenylboronic acid] | 7.1
9 | Cc1cc(C)cc(B(O)O)c1 [3,5-Dimethylphenylboronic acid] | 9.1
10 | OB(O)c1cccnc1 [3-Pyridylboronic acid] | 4.0
11 | CB(O)O [Methylboronic acid] | 10.4
12 | OB(O)c1cccc2cccnc12 [8-Quinolinylboronic acid] | 4.0
13 | OB(O)c1ccc(Br)cc1 [4-Bromophenylboronic acid] | 8.6
14 | Cc1ccccc1B(O)O [2-Methylphenylboronic acid] | 9.7
15 | Cc1cccc(B(O)O)c1 [3-Methylphenylboronic acid] | 9.0
16 | O=[N+]([O-])c1ccccc1B(O)O [2-Nitrophenylboronic acid] | 9.2
17 | Cc1ccc(B(O)O)cc1 [4-Methylphenylboronic acid] | 9.3

Same assay, conditions: second value

Row | Compound | Ionization constant (pKa)
18 | OB(O)c1cccnc1 [3-Pyridylboronic acid] | 8.2
19 | OB(O)c1cccc2cccnc12 [8-Quinolinylboronic acid] | 10
